Measured values published in US20150231080A1, “PHARMACEUTICAL COMPOSITION COMPRISING AN ATYPICAL ANTIPSYCHOTIC AGENT AND METHOD FOR THE PREPARATION THEREOF” (PHARMATHEN S.A., priority 2012, published 2015).

How the values were obtained:
[1] = blends, accelerated storage conditions
[2] = fumarate salt, crystalline powder; cited from earlier work

## OCCOCCN1CCN(C2=Nc3ccccc3Sc3ccccc32)CC1 [Quetiapine, 11-[4-[2-(2-hydroxyethoxy)ethyl]-1-piperazinyl]dibenzo[b,f][1,4]thiazepine]
[1]
  compatibility with tartaric acid: significant compatibility problems
[2]
  solubility in water: moderately soluble in water
